Data taken from US10752612B2, “PLK4 inhibitors” (LUDWIG INSTITUTE FOR CANCER RESEARCH LTD, priority 2015, dated 2020).
pIC50: −log10 of the molar value.

These compounds were tested against T1, human Plk4 kinase domain (aa 2-275) (Homo sapiens, UniProt O00444) (assay: Plk4 kinase assay (ADP-Glo)). Details: Table 1.
T1 construct: purified 6×His-tagged human Plk4 kinase domain (aa 2-275); 6xHis; made in house; host or cells: E. coli
T1 sequence (O00444 2-275): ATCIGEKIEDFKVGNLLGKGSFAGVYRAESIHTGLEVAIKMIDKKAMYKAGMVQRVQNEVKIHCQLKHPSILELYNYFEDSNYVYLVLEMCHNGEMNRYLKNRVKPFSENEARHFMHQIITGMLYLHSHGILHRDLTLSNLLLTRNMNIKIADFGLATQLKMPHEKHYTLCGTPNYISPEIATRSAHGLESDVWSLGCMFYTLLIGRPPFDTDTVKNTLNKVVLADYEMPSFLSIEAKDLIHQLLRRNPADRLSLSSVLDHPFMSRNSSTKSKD
Format: biochemical
In short: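 Enzyme at 2.5-10 nM final, pH 8.0, reacted 4-16 hours at 25° C; ADP generation read by ADP-Glo luminescence. Ki derived from IC50 by Cheng-Prusoff or, for tight binders, Copeland formalism.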
For COc1c(Nc2cc(C)[nH]n2)nc(Sc2ccc(S(=O)(=O)Cc3ccccc3)cc2)nc1N1CCC(CCN2CCN(C)CC2)CC1, the pIC50 was > 6.00. With COc1c(Nc2cc(C)[nH]n2)nc(Sc2ccc(NC(C)=O)cc2)nc1N1CCN(C(=O)N(C)C)CC1 the pIC50 was > 6.00. In the case of COc1c(Nc2cc(C)[nH]n2)nc(Sc2ccc(S(=O)(=O)Cc3ccccc3)cc2)nc1N1CCN(CCN2C(C)CCCC2C)CC1 (stereo not shown), the pIC50 was > 6.00. For CC(=O)Nc1ccc(Sc2nc(Nc3cc(C)[nH]n3)cc(N3CCCCC3)n2)cc1, the pIC50 was > 6.00. In the case of COc1c(Nc2cc(C)[nH]n2)nc(Sc2ccc(NC(=O)C3CCCC3)cc2)nc1N1CCCCC1, the pIC50 was 6.00 to 7.00. COc1c(Nc2cc(C)[nH]n2)nc(Sc2ccc(S(=O)(=O)Cc3ccc(F)cc3)cc2)nc1N1CCN(CCN(C)C)CC1 was tested, and the pIC50 was > 6.00. Cc1ccc(Sc2nc(Nc3cc(C)[nH]n3)c(C)c(N3CCC(O)CC3)n2)cc1 was tested, and the pIC50 was > 6.00. CCOc1c(Nc2cc(C)[nH]n2)nc(Sc2ccc(NC(=O)C3CC3)cc2)nc1N(CC)CC [drawing 127] showed a pIC50 of 6.00 to 7.00. In the case of COc1c(Nc2cc(C)[nH]n2)nc(Sc2ccc(S(=O)(=O)Cc3cccc(NC(C)=O)c3)cc2)nc1N1CCN(CCN(C)C)CC1, the pIC50 was > 6.00. In the case of COc1c(Nc2cc(C)[nH]n2)nc(Sc2ccc(NC(=O)C3CC3)cc2)nc1N1CCCCC1, the pIC50 was > 6.00. CCOc1c(Nc2cc(C)[nH]n2)nc(Sc2ccc(S(=O)(=O)Cc3ccccc3)cc2)nc1N1CCNCC1 was tested, and the pIC50 was < 6.00. With COc1c(Nc2cc(C)[nH]n2)nc(Sc2ccc(S(=O)(=O)Cc3cccc(Cl)c3)cc2)nc1N1CCN(CCN(C)C)CC1 the pIC50 was > 6.00. With CCOc1c(Nc2cc(C)[nH]n2)nc(Sc2ccc(NC(=O)C3CC3)cc2)nc1N1CCN(CC2CC2)CC1 the pIC50 was 6.00 to 7.00. In the case of COc1c(Nc2cc(C)[nH]n2)nc(Sc2ccc(S(=O)(=O)Cc3cccc(Cl)c3F)cc2F)nc1N1CCOCC1, the pIC50 was > 6.00. For COc1c(Nc2cc(C)[nH]n2)nc(Sc2ccc(NC(C)=O)cc2)nc1N1CCN(CCN2C3CCCC2CCC3)CC1, the pIC50 was > 6.00. COC(=O)Nc1ccc(Sc2nc(Nc3cc(C)[nH]n3)c(C)c(N3CCCCC3)n2)cc1 was tested, and the pIC50 was > 6.00. CCC1CCc2nc(Sc3ccc(NC(=O)C4CC4)cc3)nc(Nc3cc(C)[nH]n3)c21 (stereo not shown) was tested, and the pIC50 was > 6.00. For COc1c(Nc2cc(C)[nH]n2)nc(Sc2ccc(S(=O)(=O)C(C)(C)c3cccc([N+](=O)[O-])c3F)cc2F)nc1N1CCC(OC)C1 (stereo not shown), the pIC50 was > 6.00. COc1c(Nc2cc(CC(=O)Nc3cccc(F)c3)[nH]n2)nc(SC)nc1N1CCN(CCN(C)C)CC1 was tested, and the pIC50 was < 6.00. With COc1c(Nc2cc(C)[nH]n2)nc(Sc2ccc(S(=O)(=O)Cc3cccc(I)c3F)cc2F)nc1N1CCOCC1 the pIC50 was > 6.00. In the case of COc1c(Nc2cc(C)[nH]n2)nc(Sc2ccc(S(=O)(=O)Cc3ccccc3C(N)=O)cc2)nc1N1CCN(CCN(C)C)CC1, the pIC50 was > 6.00. For COCC(=O)N1CCN(c2nc(Sc3ccc(C)cc3)nc(Nc3cc(C)[nH]n3)c2C)CC1, the pIC50 was > 6.00. With COc1c(Nc2cc(C)[nH]n2)nc(Sc2ccc(S(=O)(=O)C(C)(C)c3c(F)c(F)cc(F)c3F)cc2F)nc1N1CCC(CC(=O)N(C)C)CC1 the pIC50 was > 6.00. With CC(=O)Nc1ccc(Sc2nc(Nc3cc(C)[nH]n3)c(C)c(NC3CCN(C)CC3)n2)cc1 the pIC50 was > 6.00. COc1c(Nc2cc(C)[nH]n2)nc(Sc2ccc(NC(=O)C3CC3)cc2)nc1NC(C)C was tested, and the pIC50 was > 6.00. COc1c(Nc2cc(C)[nH]n2)nc(Sc2cccc(NC(C)=O)c2)nc1N1CCN(CCN(C)C)CC1 was tested, and the pIC50 was > 6.00. With COc1c(Nc2cc(C)[nH]n2)nc(Sc2ccc(S(=O)(=O)Cc3cccc(Br)c3F)cc2F)nc1N1CCOCC1 the pIC50 was > 6.00. COc1c(Nc2cc(C)[nH]n2)nc(Sc2ccc(S(=O)(=O)c3cccc([N+](=O)[O-])c3)cc2F)nc1N1CCOCC1 was tested, and the pIC50 was > 6.00. With CCN(CC)CCN1CCN(c2nc(Sc3ccc(NC(C)=O)cc3)nc(Nc3cc(C)[nH]n3)c2OC)CC1 the pIC50 was > 6.00. For COc1c(Nc2cc(C)[nH]n2)nc(Sc2ccc(S(=O)(=O)Cc3ccccc3)cc2)nc1N1CCC(CCC23CC4CCC(C2)N43)CC1 (stereo not shown), the pIC50 was > 6.00. With COc1c(Nc2cc(C)[nH]n2)nc(Sc2ccc(NC(C)=O)cc2)nc1NC1CCNCC1 the pIC50 was > 6.00. With COc1c(Nc2cc(C)[nH]n2)nc(Sc2ccc(S(=O)(=O)Cc3cccc([N+](=O)[O-])c3F)cc2F)nc1N1CCC(CCN(C)C)CC1 the pIC50 was > 6.00. For COc1c(Nc2cc(C)[nH]n2)nc(Sc2ccc(S(=O)(=O)Cc3c(F)c(F)cc(Cl)c3F)cc2F)nc1N1CCN(CCN(C)C)CC1, the pIC50 was > 6.00. With Cc1cc(Nc2nc(Sc3ccc(NC(=O)C4CCCC4)cc3)nc(N(C)C(C)C)c2C)n[nH]1 the pIC50 was > 6.00. In the case of COc1c(Nc2cc(C)[nH]n2)nc(Sc2ccc(S(=O)(=O)N(C)C)cc2)nc1N1CCN(CCN(C)C)CC1, the pIC50 was > 6.00. For COc1c(Nc2cc(C)[nH]n2)nc(Sc2ccc(S(=O)(=O)C(F)c3cccc([N+](=O)[O-])c3F)cc2F)nc1N1CCC(CCN(C)C)CC1 (stereo not shown), the pIC50 was > 6.00. In the case of COC(=O)Cc1cc(Nc2nc(SC)nc(N3CCN(CCN(C)C)CC3)c2OC)n[nH]1, the pIC50 was < 6.00. CC(=O)Nc1ccc(Sc2nc(Nc3cc(C)[nH]n3)c(C)c(N3CCCCC3)n2)cc1 was tested, and the pIC50 was > 6.00. With COC(=O)c1cccc(CS(=O)(=O)c2ccc(Sc3nc(Nc4cc(C)[nH]n4)c(OC)c(N4CCN(CCN(C)C)CC4)n3)cc2)c1 the pIC50 was > 6.00. Cc1cc(Nc2nc(Sc3ccc(NC(=O)C4CCCC4)cc3)nc(N3CCOCC3)c2C)n[nH]1 was tested, and the pIC50 was > 6.00. In the case of COc1c(Nc2cc(C)[nH]n2)nc(Sc2ccc(NC(C)=O)cc2)nc1N1CCN(CCN(C)C)CC1, the pIC50 was > 6.00. For CCN1CCN(c2nc(Sc3ccc(NC(C)=O)cc3)nc(Nc3cc(C)[nH]n3)c2C)CC1, the pIC50 was > 6.00. COc1c(Nc2cc(C)[nH]n2)nc(Sc2ccc(S(=O)(=O)Cc3cccc([N+](=O)[O-])c3)cc2)nc1N1CCO[C@@H](C)C1 was tested, and the pIC50 was > 6.00. For Cc1cc(Nc2nc(Sc3ccc([N+](=O)[O-])cc3)nc3c2CCC32CCNCC2)n[nH]1, the pIC50 was > 6.00. COc1c(Nc2cc(C)[nH]n2)nc(Sc2ccc(NC(C)=O)cc2)nc1N1CCCCC1 was tested, and the pIC50 was > 6.00. In the case of COc1c(Nc2cc(C)[nH]n2)nc(Sc2ccc(S(=O)(=O)Cc3ccccc3F)cc2)nc1N1CCOCC1, the pIC50 was > 6.00. For Cc1cc(Nc2nc(Sc3ccc(NC(=O)C4CCC4)cc3)nc(N3CCN(C)CC3)c2C)n[nH]1, the pIC50 was > 6.00. In the case of COc1c(Nc2cc(C)[nH]n2)nc(Sc2ccc(NC(C)=O)cc2)nc1N(C)C(C)C, the pIC50 was > 6.00. For CC(=O)Nc1ccc(Sc2nc(Nc3cc(C)[nH]n3)c(C)c(N3C4CCC3CC(O)C4)n2)cc1 (stereo not shown), the pIC50 was > 6.00. In the case of CCOc1c(Nc2cc(C)[nH]n2)nc(Sc2ccc(NC(=O)C3CCCC3)cc2)nc1N(CC)CC, the pIC50 was < 6.00. COc1c(Nc2cc(C)[nH]n2)nc(Sc2ccc(S(=O)(=O)Cc3cccc([N+](=O)[O-])c3O)cc2)nc1N1CCN(CCN(C)C)CC1 was tested, and the pIC50 was > 6.00. COc1c(Nc2cc(C)[nH]n2)nc(Sc2ccc(S(=O)(=O)Cc3cccc(F)c3F)cc2F)nc1N1CCOCC1 was tested, and the pIC50 was > 6.00. For COc1c(Nc2cc(C)[nH]n2)nc(Sc2ccc(S(=O)(=O)Cc3cccc([N+](=O)[O-])c3Cl)cc2)nc1N1CCN(CCN(C)C)CC1, the pIC50 was > 6.00. In the case of CC(=O)Nc1ccc(Sc2nc(Nc3cc(C)[nH]n3)c(C)c(N3CCC(C)(O)CC3)n2)cc1, the pIC50 was > 6.00. For Cc1cc(Nc2cc(C)[nH]n2)nc(Sc2ccc(NC(=O)C3CC3)cc2)n1, the pIC50 was > 6.00. With CCC(=O)N1CCN(c2nc(Sc3ccc(NC(C)=O)cc3)nc(Nc3cc(C)[nH]n3)c2OC)CC1 the pIC50 was > 6.00. COc1c(Nc2cc(C)[nH]n2)nc(Sc2ccc(S(=O)(=O)Cc3ccccc3)cc2)nc1N1CCOCC1 was tested, and the pIC50 was > 6.00. Cc1cc(Nc2nc(Sc3ccc(NC(=O)C4CC4)cc3)nc(N3CCN(C)CC3)c2CO)n[nH]1 showed a pIC50 of 6.00 to 7.00. In the case of COc1c(Nc2cc(C)[nH]n2)nc(Sc2ccc(S(=O)(=O)Cc3cccc([N+](=O)[O-])c3)cc2)nc1N1C2CCC1COC2, the pIC50 was > 6.00. In the case of Cc1cc(Nc2nc(Sc3ccccc3)nc(N3CCCCC3)c2C)n[nH]1, the pIC50 was > 6.00. For CCOc1c(Nc2cc(C)[nH]n2)nc(Sc2ccc(NC(=O)C3CC3)cc2)nc1N1CCNCC1 [drawing 122], the pIC50 was > 6.00. Cc1cc(Nc2nc(Sc3ccc(NC(=O)C4CC4)cc3)nc(N3CCN(C)C(C)C3)c2C)n[nH]1 (stereo not shown) was tested, and the pIC50 was > 6.00. With Cc1cc(Nc2nc(Sc3ccc(NC(=O)C4CC4)cc3)nc(N3CCN(C)CC3)c2C)n[nH]1 the pIC50 was > 6.00. With COc1c(Nc2cc(C)[nH]n2)nc(Sc2ccc(NC(C)=O)cc2)nc1N1C2CCC1CC(O)C2 (stereo not shown) the pIC50 was > 6.00. In the case of COc1c(Nc2cc(C)[nH]n2)nc(Sc2ccc(NC(=O)C3CC3)cc2)nc1NC1CCNCC1, the pIC50 was 6.00 to 7.00. In the case of CCS(=O)(=O)c1ccc(Sc2nc(Nc3cc(C)[nH]n3)c(OC)c(N3CCOCC3)n2)cc1, the pIC50 was > 6.00. In the case of COc1c(Nc2ncc(C)s2)nc(Sc2ccc(S(C)(=O)=O)cc2)nc1N1CCN(CCN(C)C)CC1, the pIC50 was > 6.00. With COc1c(Nc2cc(C)[nH]n2)nc(Sc2ccc(S(=O)(=O)Cc3ccccc3)cc2)nc1N1CCN(CCN2CCCC2)CC1 the pIC50 was > 6.00. In the case of COc1c(Nc2cc(C)[nH]n2)nc(Sc2ccc(S(=O)(=O)Cc3ccccc3)cc2)nc1N1CCN(CCN2C3CCCC2CC3)CC1, the pIC50 was > 6.00. Work on CCOc1c(Nc2cc(C)[nH]n2)nc(SC)nc1N1CCC(O)CC1 yielded a pIC50 of 6.00 to 7.00. With COc1c(Nc2cc(C)[nH]n2)nc(Sc2ccc(NC(C)=O)cc2)nc1N1CCC(N(C)C)CC1 the pIC50 was > 6.00. With COc1c(Nc2cc(C)[nH]n2)nc(Sc2ccc(NC(C)=O)nc2)nc1N1CCOCC1 the pIC50 was > 6.00. With CCS(=O)(=O)c1ccc(Sc2nc(Nc3cc(C)[nH]n3)c(OC)c(N3CCC(CCN(C)C)CC3)n2)c(Cl)c1 the pIC50 was > 6.00. For Cc1cc(Nc2nc(Sc3ccc(NC(=O)C4CC4)cc3)nc(N3CCCCC3)c2C)n[nH]1, the pIC50 was > 6.00. With COc1c(Nc2cc(C)[nH]n2)nc(Sc2ccc(S(=O)(=O)Cc3cccc([N+](=O)[O-])c3F)cc2)nc1N1CCCCC1 the pIC50 was > 6.00. For COc1c(Nc2cc(C)[nH]n2)nc(Sc2ccc(S(=O)(=O)Cc3ccccc3Cl)cc2)nc1N1CCN(CCN(C)C)CC1, the pIC50 was > 6.00.
